Experiment [1] is described as follows: Cytotoxicity against multidrug resistant human KBH5.0 cells overexpressing BCRP after 4 days by MTT assay. The following applies: KBH5.0 cell, 96 h. It is filed as functional, cell-based. (In general: Tetrazolium assays rely on reduction of a dye to a coloured formazan, in cell work by metabolically active cells.)
Experiment [2] is described as follows: Cytotoxicity against multidrug resistant human KBV1 cells overexpressing MDR1 after 4 days by MTT assay. Type of experiment: functional, cell-based. The conditions noted are these: KB-V1, 96 h.
Experiment [3] in a line: Cytotoxicity against human KB3-1 cells after 4 days after MTT assay. The conditions noted are these: KB 3-1, 96 h. It is filed as functional, cell-based.
Experiment [4] can be described thus: Cytotoxicity against human RPMI8402 cells after 4 days by MTT assay. It is filed as functional, cell-based. The conditions noted are these: RPMI 8402, 96 h.
The nature of experiment [5]: Cytotoxicity against mouse P388/CPT45 cells after 4 days by MTT assay. The conditions noted are these: P388CPT45, 96 h. It is filed as functional, cell-based.
The subject of the next experiment is P388. Nature of the experiment: Cytotoxicity against mouse P388 cells after 4 days by MTT assay. Type of experiment: functional, cell-based. The following applies: P388, 96 h.
Experiment [6] can be described thus: Cytotoxicity against human CPT-K5 cells after 4 days by MTT assay. The following applies: CPT-K5, 96 h. Type of experiment: functional, cell-based.
For experiment [7], the target named is T1, DNA topoisomerase 1 (Homo sapiens) (UniProt P11387).
T1 sequence (whole entry): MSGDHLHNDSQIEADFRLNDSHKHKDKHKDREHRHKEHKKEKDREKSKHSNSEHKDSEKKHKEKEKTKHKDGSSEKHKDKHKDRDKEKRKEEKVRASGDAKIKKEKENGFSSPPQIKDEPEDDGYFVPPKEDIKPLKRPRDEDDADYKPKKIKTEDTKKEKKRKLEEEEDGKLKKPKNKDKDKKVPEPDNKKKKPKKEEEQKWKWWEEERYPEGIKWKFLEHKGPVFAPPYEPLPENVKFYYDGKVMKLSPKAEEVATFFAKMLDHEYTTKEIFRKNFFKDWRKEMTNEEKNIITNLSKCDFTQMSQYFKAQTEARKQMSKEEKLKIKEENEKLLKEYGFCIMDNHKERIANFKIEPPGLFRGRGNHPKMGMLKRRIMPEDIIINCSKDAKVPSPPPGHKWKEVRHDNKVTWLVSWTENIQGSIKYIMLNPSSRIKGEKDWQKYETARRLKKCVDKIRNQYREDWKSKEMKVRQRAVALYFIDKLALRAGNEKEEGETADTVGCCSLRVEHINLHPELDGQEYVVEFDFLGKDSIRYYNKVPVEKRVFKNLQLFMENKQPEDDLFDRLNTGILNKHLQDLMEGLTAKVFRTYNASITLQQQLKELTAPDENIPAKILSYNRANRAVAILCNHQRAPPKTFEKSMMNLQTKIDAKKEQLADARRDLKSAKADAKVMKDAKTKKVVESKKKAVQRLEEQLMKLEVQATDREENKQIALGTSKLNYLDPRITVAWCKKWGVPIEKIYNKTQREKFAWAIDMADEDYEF
Nature of the experiment: Effect on human topoisomerase 1 expressed in Sf9 insect cells assessed as effective concentration required for 10% cleavage of plasmid DNA relative to topotecan.

Our source for the IC50 and Activity values is ChEMBL document CHEMBL1153574, “Novel topoisomerase I-targeting antitumor agents synthesized from the N,N,N-trimethylammonium derivative of ARC-111, 5H-2,3-dimethoxy-8,9-methylenedioxy-5-[(2-N,N,N-trimethylammonium)ethyl]dibenzo[c,h][1,6]naphthyridin-6-one iodide” (Eur J Med Chem, 2009).

The structures appear in SMILES notation.

With `COc1cc2c(=O)n(CCNC(CO)(CO)CO)c3c4cc5c(cc4ncc3c2cc1OC)OCO5`, the IC50 came to 1.8 µM in experiment [1]; 1.8 µM in experiment [2]; 0.25 µM in experiment [3]; 0.33 µM in experiment [4]; 3.5 µM in experiment [5]; 0.33 µM with P388. Besides, the IC50 in experiment [6] was found to be 7 µM. Also, the Activity in experiment [7] was determined as 2.

As to `COc1cc2c(=O)n(CCN(C)CCN(C)C)c3c4cc5c(cc4ncc3c2cc1OC)OCO5`, the IC50 came out at 0.21 µM in experiment [1]; 0.6 µM in experiment [2]; 0.05 µM in experiment [3]; 0.045 µM in experiment [4]; 0.07 µM in experiment [5]; 0.035 µM in the experiment with P388. This molecule also came in with an IC50 in experiment [6] of 2.2 µM. Also, the Activity in experiment [7] was found to be 0.7.

Take `COc1cc2c(=O)n(CCNC3CC3)c3c4cc5c(cc4ncc3c2cc1OC)OCO5`: the IC50 in experiment [1] was 0.008 µM; in experiment [2] it was 0.04 µM; in experiment [3], 0.004 µM; in experiment [4], 0.01 µM; in experiment [5], 0.11 µM; in the experiment on P388 it was 0.009 µM. The IC50 in experiment [6] was 0.3 µM. Further, the Activity in experiment [7] was 0.3.

Regarding `COc1cc2c(=O)n(CCN(CCO)CCO)c3c4cc5c(cc4ncc3c2cc1OC)OCO5`, the IC50 in experiment [1] is 0.28 µM; in experiment [2], 0.35 µM; in experiment [3], 0.023 µM; in experiment [4] it was 0.04 µM; in experiment [5], 0.25 µM; in the experiment on P388, 0.03 µM. In experiment [6], this molecule came in with an IC50 of 0.32 µM. Besides, in experiment [7], the Activity came to 0.48.

In the case of `COc1cc2c(=O)n(CCNCCN(C)C)c3c4cc5c(cc4ncc3c2cc1OC)OCO5`, the IC50 in experiment [1] is 0.75 µM; in experiment [2], 3.4 µM; in experiment [3], 0.06 µM; in experiment [4], 0.14 µM; in experiment [5], 0.34 µM; in the experiment with P388, 0.075 µM. Further, the IC50 in experiment [6] came out at 2.6 µM. Further, the Activity in experiment [7] is 6.4.

Consider `CC[C@@]1(O)C(=O)OCc2c1cc1n(c2=O)Cc2cc3ccccc3nc2-1`, for which the Activity in experiment [7] amounted to 0.2.

With `COc1cc2c(=O)n(CCNC(CO)CO)c3c4cc5c(cc4ncc3c2cc1OC)OCO5`, the IC50 in experiment [1] is 0.75 µM; in experiment [2], 2 µM; in experiment [3], 0.026 µM; in experiment [4] it was 0.054 µM; in the experiment with P388, 0.08 µM; in experiment [6], above 10 µM. The Activity in experiment [7] turned out to be 0.2.

Turning to `COc1cc2c(=O)n(CCO)c3c4cc5c(cc4ncc3c2cc1OC)OCO5`, the IC50 turned out to be 0.04 µM in experiment [1]; 0.04 µM in experiment [2]; 0.027 µM in experiment [3]; 0.03 µM in experiment [4]; 0.9 µM in experiment [5]; 0.03 µM in the experiment with P388. In experiment [6], the IC50 is above 10 µM. Also, in experiment [7], the Activity was found to be 4.7.

In the case of `COc1cc2c(=O)n(CCn3ccnc3)c3c4cc5c(cc4ncc3c2cc1OC)OCO5`, the IC50 in experiment [1] was 0.58 µM; in experiment [2] it was 1.8 µM; in experiment [3] it was 0.15 µM; in experiment [4], 0.21 µM; in experiment [5] it was above 10 µM; in the experiment with P388 it was 0.2 µM. This molecule returned an IC50 in experiment [6] above 10 µM. Moreover, the Activity in experiment [7] was found to be 2.3.

For `COc1cc2c(=O)n(CCn3ccnn3)c3c4cc5c(cc4ncc3c2cc1OC)OCO5`, the IC50 in experiment [1] was 6 µM; in experiment [2], 10 µM; in experiment [3], 0.7 µM; in experiment [4], 3.5 µM; in experiment [5], above 10 µM; in the experiment on P388 it was 4.4 µM. In experiment [6], this molecule yielded an IC50 above 10 µM. In addition, in experiment [7], the Activity was above 10.

For the molecule `CCN(CC)CCNCCn1c(=O)c2cc(OC)c(OC)cc2c2cnc3cc4c(cc3c21)OCO4`, the IC50 in experiment [1] is 0.3 µM; in experiment [2], 1.2 µM; in experiment [3] it was 0.04 µM; in experiment [4] it was 0.15 µM; in experiment [5], 0.35 µM; with P388, 0.23 µM. Further, in experiment [6], 9 µM corresponded to half-maximal inhibition (IC50). Also, the Activity in experiment [7] worked out at 5.2.

`COc1cc2c(=O)n(CCOC(=O)CN(C)C)c3c4cc5c(cc4ncc3c2cc1OC)OCO5`: the IC50 is 0.05 µM in experiment [1]; 0.035 µM in experiment [2]; 0.032 µM in experiment [3]; 0.03 µM in experiment [4]; 0.39 µM in experiment [5]; 0.027 µM in the experiment with P388. Inhibition in experiment [6] was half-maximal at 4.6 µM (IC50). In addition, in experiment [7], the Activity is 0.3.

As to `COc1cc2c(=O)n(CCN(C)CCO)c3c4cc5c(cc4ncc3c2cc1OC)OCO5`, the IC50 came out at 0.05 µM in experiment [1]; 0.06 µM in experiment [2]; 0.006 µM in experiment [3]; 0.015 µM in experiment [4]; 0.33 µM in experiment [5]; 0.012 µM in the experiment on P388. This molecule also gave an IC50 in experiment [6] of 0.58 µM. Further, in experiment [7], the Activity worked out at 0.04.

On to `COc1cc2c(=O)n(CCN(C)C)c3c4cc5c(cc4ncc3c2cc1OC)OCO5`, for which the IC50 in experiment [2] and in experiment [3] was 0.005 µM throughout. Besides, in experiment [7], the Activity amounted to 0.3.

For orientation: IC50 means the concentration needed to halve the response being measured. Higher therefore signals weaker potency.
